Assay [1] has as its system PC-12 cells. Kind of assay: Quantitative PCR of neuronal transcripts NF-L and NPY in PC-12 cells. Format: cell-based, rat. The note with it: 100 ng/mL, day 3 or 4, GAPDH as reference. How it is done: Finally, we compared the differentiation of PC-12 cells maintained in paper-supported MATRIGEL™ (“paper”) with that of cells in paper-free MATRIGEL™ (“3D”) or on MATRIGEL™ coated surfaces (“2D”).
Cells in these matrices were proliferated in serum-containing media or in media supplemented with 100 ng/mL NFG. On day 3 or 4, the samples were processed to isolate mRNA and the level of expression of NF-L or NPY were assessed by quantitative PCR. GAPDH and actin were used as housekeeping controls. ΔΔCT-analysis was performed in the linear range for every primer using GAPDH as a reference. In FIG. 14, each data point is an average of measurements from 3 independent samples. The error bar is one standard deviation.

Assay [2] has as its system PC-12 rat adrenal pheochromocytoma cell line. Kind of assay: Proliferation of PC-12 cells in MATRIGEL-permeated paper (phalloidin stain, gel scanner). The note with it: serum-containing media, 100 ng/mL NGF. Format: cell-based. The protocol:
First, we assessed the proliferation of PC-12 cells grown in paper in response to NGF. Suspensions of PC12 cells in MATRIGEL™ (1 uL, 5×10^6 cells/mL) were spotted onto filter paper. The paper was placed in serum-containing media (2.5% fetal bovine serum, 15% horse serum in F12K basal media) or serum-containing media supplemented with 100 ng/mL of nerve growth factor (NGF). Cells within paper MATRIGEL™ matrix were cultured for the indicated times, fixed with formaldehyde, and stained with Alexa Fluor 488-conjugated phalloidin. The paper was scanned using a Typhoon fluorescent gel scanner (see FIG. 13A). Error bars are one standard deviation.

Assay [3] deals with PC-12 cells. Kind of assay: Neuronal differentiation of PC-12 cells in paper-supported MATRIGEL (confocal microscopy, neurites). Type of assay: cell-based, rat. The following applies: 6 days, 100 ng/mL NGF. An excerpt:
Next, we assessed whether PC-12 cells maintained in paper-supported three-dimensional matrices were differentiated into neurons using NGF-treatment. We spotted suspensions of PC12 cells in MATRIGEL™ onto paper and suspended the paper in the media supplemented with NGF or with a combination of NGF and the ROCK inhibitor Y27632. Confocal microscopy examination uncovered neuron-like cells with long neurites. The morphology of cells and length of neurites varied when different media/additives were used.

The next assay concerns HUVEC. Kind of assay: Three-dimensional migration (invasion) of HUVEC cells in MATRIGEL-permeated paper. Type of assay: cell-based, human. How it is done: A suspension of cells in […]™ (1 μL, 10^7 cells/mL) was spotted onto paper, and the paper was immersed in […]™. […] Migration of the cells into the surrounding […]™ was monitored over time using a fluorescent gel scanner. […] The radius of the cell-containing spot served as the measure of the migration. Cell-containing sheets were suspended in endothelial culture media supplemented with 100 ng/mL VEGF (“VEGF”) or 10 μM of small molecule inhibitor of Rho kinase Y27632 (“Y27632”).

Another assay has as its system 3T3 fibroblasts. Kind of assay: Proliferation of 3T3 fibroblasts in MATRIGEL-permeated paper in 96-well plate (Alamar Blue). Type of assay: cell-based. The note with it: colchicine added to the wells. An excerpt:
One exemplary method is depicted in FIG. 8. In this method, a paper array of the same size is distributed to each well of the microtiter plate to ensure delivery of nearly identical number of cells per well (FIG. 8A). To illustrate this strategy, 2 mm×4 mm pieces of filter paper were permeated with suspension of 3T3 fibroblasts in MATRIGEL™ and then distributed into the wells of a 96-well plate. Alamar Blue was used to estimate the number of cells. […] 3T3 cells proliferated within MATRIGEL™-soaked paper but not within the MATRIGEL™-free paper (FIG. 8B), and this proliferation was halted when colchicine was added to the wells. This system, therefore, can be used to screen for agents that influence proliferation of cells in three-dimensional arrays.

The results in this text go back to patent US9829488B2, “Paper-based cellular arrays” (President and Fellows of Havard College, priority 2008, dated 2017).

For the compound NGF: nerve growth factor, in the assay with PC-12 cells [1], the “level of NF-L expression” value is listed as “induced” and the “level of NPY expression” value is listed as “induced”. Besides, the “effect on growth rate of the cells” value in assay [2] was “little effect”. Besides, in the assay with PC-12 cells [3] (serum containing media), the “neurites developed by cells” value is “short neurites”. The “neurites developed by cells” value in the assay with PC-12 cells [3] (serum-free media) is “longer neurites”.
VEGF: in the assay on HUVEC (EGM with additional 100 ng/mL VEGF, compared with EGM+10 μM Y27632), the “radius of the invasion” value is on record as “significantly lower”.
`COc1cc2c(c(OC)c1OC)-c1ccc(OC)c(=O)cc1[C@@H](NC(C)=O)CC2` [colchicine]: the “proliferation of 3T3 cells within MATRIGEL-soaked paper” value in the assay on 3T3 fibroblasts is recorded as “halted”.
For the compound `C[C@@H](N)[C@H]1CC[C@H](C(=O)Nc2ccncc2)CC1` [Y27632, reference compound], the “outgrowth of cells (migration into surrounding MATRIGEL)” value in the assay with HUVEC (endothelial culture media + 10 μM Y27632) is “promoted”. Also, in the assay on PC-12 cells [3] (serum-free media, 5 μM Y27632), the “neurites developed by cells” value is “extensive 3D network of interconnected neurites”.
